{
  "source": "patent US11180767B2",
  "about": "“Protease deficient filamentous fungal cells and methods of use thereof” (GLYKOS FINLAND OY, priority 2012, dated 2021)",
  "key": {"[1]": {"test_system": "aspartic proteases", "test": "IgG degradation by pepstatin A affinity purified aspartic proteases", "assay_type": "biochemical, Trichoderma reesei", "details": "10 μM pepstatin A; pH 5.5, 37°C, 20 hours", "description": "The T. reesei fed batch fermentation supernatant (15 ml) was used to batch bind proteases to the resin in 35 ml of buffer containing 50 mM sodium acetate, 0.2 M NaCl, pH 3.0. The column was washed with the same binding buffer and bound protein was removed with elution buffer (50 mM Tris-HCL, 1 M NaCl, pH 8.5). Fractions of 0.5 ml were collected. In total 42 μg of protease was purified. The peak fraction contained 0.04 μg/μl protein. 30 μl of each fraction was mixed with 6 μl of Laemmli sample buffer containing β-mercaptoethanol. The samples were heated at 95° C. for 5 minutes before being loaded into a 4-15% PAGE gel (BioRad mini-protean TGX precast gel) along with a broad range prestained molecular weight marker (BioRad). The gel was run in SDS PAGE running buffer for 30 minutes at 100 V, and then stained with GelCode (Thermo Scientific) blue stain.\nProtein (0.8 μg) from the peak fraction (F3) was then incubated with IgG (50 μg ml) in sodium citrate buffer (50 mM, pH 5.5) at 37° C. for 20 hours (FIG. 2). The protein was incubated either in the presence or absence of 10 μM pepstatin A. The antibody mixture was combined with Laemmli sample buffer and heated at 95° C. for 5 minutes. These samples were then loaded into a 4-15% PAGE gel (BioRad mini-protean TGX precast gel) along with a broad range prestained molecular weight marker (BioRad). […]"}, "[2]": {"test_system": "M369 human growth hormone strain", "test": "hGH production in 24 well cultures with inhibitors and supplements", "assay_type": "cell-based, Trichoderma reesei", "details": "24 well culture, pH 4.5, day 4 immunoblot", "description": "To evaluate what inhibitors would best stabilize production of hGH, 24 well cultures of these strains were performed. The M369 human growth hormone strain (Δpep1Δtsp1Δslp1Δgap1Δgap2) was grown along with single components or with combinations of the following: trypsin and subtilisin inhibitor SBTI, the acidic protease inhibitor peptide SIP, the acidic protease inhibitor peptide LIP, the aspartic protease inhibitor pepstatin A free peptide, pepstatin A immobilized to agarose beads, the trypsin and subtilisin inhibitor BBI from lima bean, the […] chymostatin, and BSA. Three independent wells were chosen for control wells where no inhibitors or supplements were added. These two strains were grown in 3 ml of TrMM with diammonium citrate without ammonium sulfate, 100 mM PIPPS, 20 g/L spent grain extract, 40 g/L lactose adjusted to pH 4.5. The 24 well plates were shaken at 800 rpm, 85% humidity, and 28° C. The cultures were grown for 6 days and covered with an air permeable membrane.\nInhibitors were added first on day 1 and then daily beginning on day 3. 100 μl samples were taken from the culture wells beginning on day 3. The mycelium was spun down for 5 minutes at 13 k and the supernatant collected. From the culture supernatant 12 μl was loaded in a 4-20% SDS PAGE gel and immunoblotting made on nitrocellulose with mouse anti-hGH antibody (2 μg/ml) and goat anti-mouse IgG AP conjugated secondary antibody diluted 1:10,000 in TBST.\nEstimating the expression levels relative to the 200 ng control sample, the control wells produced between 3-6 mg/L of hGH, the BSA (0.25%)/SIP (50 μM)/8BTI (0.2 mg/ml) treatment produced 24.5 mg/L, the SIP (50 μM)/8BTI (0.2 mg/ml) treatment produced 26.6 mg/L, and the pepstatin A beads/SBTI (0.2 mg/ml) addition yielded 24.5 mg/L of hGH. Therefore, using a combination of inhibitors and additives worked best increasing the production levels by at least 4-fold. The critical parameter was to include an aspartic protease inhibitor into the mix."}},
  "note": "Non-standard residues stand in square brackets, D forms with d. Residues, ends and D or L forms follow the SMILES beside them. *: point of attachment. Sta = CC(C)C[C@H](N)[C@@H](O)CC(=O)O; Isovaleryl = CC(C)CC(=O)*",
  "data": [
    {"smiles": "CC(C)CC(=O)N[C@H](C(=O)N[C@H](C(=O)N[C@@H](CC(C)C)[C@@H](O)CC(=O)N[C@@H](C)C(=O)N[C@@H](CC(C)C)[C@@H](O)CC(=O)O)C(C)C)C(C)C", "note": "[pepstatin A] (Isovaleryl-VV[Sta]A[Sta]-OH)", "values": [
      {"measurement": "IgG degradation by aspartic proteases", "setting": "[1]", "result": "inhibited"},
      {"measurement": "effect on hGH production", "setting": "[2]", "result": "negative effect on the growth hormone production"}
    ]}
  ]
}
